Here are results for 2 compounds from patent publication US9006210B2, “Compositions and methods for treating corneal inflammation” (Case Western Reserve University, priority 2008, dated 2015).

For data set [1], the target named is T1, TLR4 (Homo sapiens, UniProt O00206+Q9Y6Y9). The experiment in a line: LPS-induced IL-8 production by neutrophils (HL-60). More on the design: endogenous in cells; host or cells: HL-60 (five days in 1.2% DMSO). It counts as cell-based. The settings on record: for LPS-induced IL-8 production: HL-60 neutrophils, 1 ng/ml LPS, 3 h. How it is done: (§1) The U937 macrophage-cell line was cultured in RPMI medium (GIBCO) with 10% FBS, and 5×10^4 cells/well were added to 96-well plates. The human neutrophil-like cell line (HL-60) was maintained in RPMI with 10% FBS, and incubated five days in 1.2% DMSO to generate the neutrophil phenotype.
(§2) All cells were incubated with eritoran or placebo, followed by stimulation with LPS or Pam3CysK4 at optimal concentrations for each cells line (noted in results). After 3 h, cell-free supernatants were collected, and CXCL8/IL-8 was measured by ELISA (R&D Systems).
(§3) Cell lines derived from human corneal epithelial cells (HCE-T), macrophages (U937) and neutrophils (HL-60) were stimulated with LPS or Pam3Cys in the presence of eritoran tetrasodium or placebo. After 3 h (U937 and HL-60 cells) or 24 h (HCE-T cell), IL-8 levels in culture supernatants were quantified by ELISA. […] FIGS. 16 and 17 show macrophages stimulated with 10 ng/ml LPS or 500 ng/ml Pam3Cys in the presence of Eritoran or placebo. FIGS. 18 and 19 show neutrophils stimulated with 1 ng/ml LPS or 500 ng/ml Pam3Cys and Eritoran or placebo. LPS concentrations were based on preliminary data showing optimal IL-8 production. […] Graphs are mean+/−SEM of three wells per sample. Experiments were repeated three times with similar results.

The target in data set [2] is T1, TLR4. The experiment in a line: LPS-induced IL-8 production by macrophages (U937). The format is cell-based. More on the design: endogenous in cells. The settings on record: for LPS-induced IL-8 production: U937 macrophages, 10 ng/ml LPS, 3 h. How it is done: as §1, §2, §3
Data set [3] concerns the target T1, TLR4. The experiment in a line: LPS-induced IL-8 production by human corneal epithelial cells (HCE-T). Particulars: for LPS-induced IL-8 production: HCE-T cells, 900 ng/ml LPS with 0.2 μg/ml MD-2, 24 h, ELISA. The format is cell-based. More on the design: endogenous in cells; host or cells: HL-60 (five days in 1.2% DMSO). How it is done: (§4) The SV-40 transfected human corneal epithelial cell line (HCE-T) was obtained from ATCC. Before stimulation, HCE cells were plated into 48 well plates and underwent epidermal growth factor starvation overnight. As HCE cells require exogenous MD-2 to respond to LPS, cells were incubated 1 h with 200 ng/ml recombinant human MD-2 (R&D Systems, Minneapolis, Minn.) prior to stimulation with ultrapure LPS (TLR4-specific, Escherichia coli K12, Invivogen; San Diego, Calif.). HCE cells were also incubated with Pam3CysK4 (EMC Microcollections, Germany) in the absence of MD-2.
as §2, §3

For the next data set, the target named is T2, TLR4/MD-2 (Mus musculus, UniProt Q9JHF9+Q9QUK6).
T2 construct: from tissue; host or cells: cornea of living C57BL/6 mice
T2 sequence (Q9QUK6 26-835): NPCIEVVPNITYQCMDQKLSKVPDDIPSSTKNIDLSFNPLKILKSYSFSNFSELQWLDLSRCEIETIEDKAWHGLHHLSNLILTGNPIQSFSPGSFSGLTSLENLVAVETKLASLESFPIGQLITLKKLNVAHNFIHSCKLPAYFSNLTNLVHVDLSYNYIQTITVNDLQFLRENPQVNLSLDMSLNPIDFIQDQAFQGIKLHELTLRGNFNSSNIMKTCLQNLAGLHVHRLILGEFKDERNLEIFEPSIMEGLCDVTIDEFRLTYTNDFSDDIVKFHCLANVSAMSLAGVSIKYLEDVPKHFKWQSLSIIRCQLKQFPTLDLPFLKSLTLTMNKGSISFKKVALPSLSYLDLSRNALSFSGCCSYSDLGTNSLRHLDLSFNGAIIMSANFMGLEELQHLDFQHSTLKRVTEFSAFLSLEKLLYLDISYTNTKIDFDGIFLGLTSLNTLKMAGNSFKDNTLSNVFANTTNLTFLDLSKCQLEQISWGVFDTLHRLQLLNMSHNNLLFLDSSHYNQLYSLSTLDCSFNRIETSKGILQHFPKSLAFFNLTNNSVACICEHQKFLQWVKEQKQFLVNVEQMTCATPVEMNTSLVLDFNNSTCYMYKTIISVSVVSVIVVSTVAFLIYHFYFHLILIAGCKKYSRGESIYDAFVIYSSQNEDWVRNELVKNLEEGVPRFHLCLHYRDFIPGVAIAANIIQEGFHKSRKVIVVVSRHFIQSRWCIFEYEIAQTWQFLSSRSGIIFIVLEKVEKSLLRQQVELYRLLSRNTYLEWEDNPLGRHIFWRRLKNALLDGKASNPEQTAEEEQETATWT
T2 sequence (Q9JHF9 19-160): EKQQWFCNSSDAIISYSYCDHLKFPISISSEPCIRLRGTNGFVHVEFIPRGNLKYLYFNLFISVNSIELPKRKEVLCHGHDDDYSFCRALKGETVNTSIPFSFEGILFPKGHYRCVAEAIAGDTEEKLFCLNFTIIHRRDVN
More on the design: species or system C57BL/6 mice. Particulars: in vivo.

Data set [4] deals with T3, TLR2 (Mus musculus, UniProt Q9QUN7).
T3 construct: Corneas of C57BL/6 mice were abraded with three parallel, superficial scratches; from tissue; host or cells: cornea of living C57BL/6 mice
The data set is described as follows: Pam3Cys-induced contact lens corneal inflammation (neutrophil infiltrate, reflectivity). The format is in vivo, C57BL/6 mice.

For data set [5], the target named is T4, TLR2 (Homo sapiens, UniProt O60603).
T4 construct: endogenous in cells; host or cells: HCE-T human corneal epithelial cell line (ATCC)
The experiment in a line: Pam3Cys-induced IL-8 production by macrophages (U937). The format is cell-based. Particulars: 500 ng/ml Pam3Cys, 3 h. How it is done:
as §1, §2, §3

Data set [6] concerns the target T3, TLR2. The experiment in a line: Pam3Cys-induced CXCL1/KC production in the cornea, mouse contact lens model. The format is in vivo, C57BL/6 mice. Particulars: topical pre-treatment 1 h before Pam3Cys; ELISA 4 h after stimulation; vs placebo.
Method: (§5) C57BL/6 mice (6-8 weeks old) were obtained from The Jackson Laboratory (Bar Harbor, Me.). Mice were anesthetized by intraperitoneal injection of 0.4 ml 2,2,2-tribromoethanol (TBE). A 26 gauge needle was used to make three parallel abrasions in the corneal epithelium as described in our previous studies. Eritoran tetrasodium or placebo at concentrations indicated for each experiment was added topically, and a 2 mm diameter punch from a normal contact lens (LOTRAFILCON A; CIBA VISION) was added to the corneal surface (See FIG. 1). After an additional 1 h, the lens was briefly removed, and 2 μl LPS (20 mg/ml) or Pam3Cys (5 mg/ml) was placed on the corneal surface. The contact lens button was then replaced, and after an additional 1 h, the lens was removed and the mice were allowed to recover from anesthesia. In some experiments, the order of agonist and antagonist was reversed, or both were given simultaneously.
Briefly, Corneas of C57BL/6 mice were abraded with three parallel, superficial scratches. 2 μl of 350 mg/ml Eritoran or placebo was added topically, and a 2 mm diameter punch from a soft contact lens was placed on the corneal surface as shown in FIG. 1. […] After 1 h, the lens was removed, and 3 h later (4 h after stimulation), and corneas were dissected, homogenized, and CXCL1/KC was measured by ELISA. […]
Data set [7] concerns the target T4, TLR2. The data set is described as follows: Pam3Cys-induced IL-8 production by neutrophils (HL-60). Particulars: HL-60 neutrophils; 500 ng/ml Pam3Cys; 3 h. The format is cell-based. How it is done:
as §1, §2, §3

Data set [8] deals with T5, TLR4 (Mus musculus, UniProt Q9JHF9+Q9QUK6).
T5 construct: Corneas of C57BL/6 mice were abraded with three parallel, superficial scratches; from tissue; host or cells: cornea of living C57BL/6 mice
T5 sequence (Q9QUK6 26-835): T2 sequence (Q9QUK6 26-835)
T5 sequence (Q9JHF9 19-160): T2 sequence (Q9JHF9 19-160)
More on the design: species or system C57BL/6 mice. Particulars: in vivo.

Data set [9] has as its target T4, TLR2. The data set is described as follows: Pam3Cys-induced IL-8 production by human corneal epithelial cells (HCE-T). It counts as cell-based. Particulars: 500 ng/ml Pam3Cys, 24 h. How it is done: as §4, §2
Cell lines derived from human corneal epithelial cells (HCE-T), macrophages (U937) and neutrophils (HL-60) were stimulated with LPS or Pam3Cys in the presence of eritoran tetrasodium or placebo. After 3 h (U937 and HL-60 cells) or 24 h (HCE-T cell), IL-8 levels in culture supernatants were quantified by ELISA. […] FIGS. 16 and 17 show macrophages stimulated with 10 ng/ml LPS or 500 ng/ml Pam3Cys in the presence of Eritoran or placebo. FIGS. 18 and 19 show neutrophils stimulated with 1 ng/ml LPS or 500 ng/ml Pam3Cys and Eritoran or placebo. […]

A further data set concerns corneal epithelium. How it is done:
The cell viability in vitro was measured by trypan blue. The corneal sections were incubated with terminal deoxynucleotidyl transferase-mediated dUTP nick end labeling (TUNEL) reagents according to manufacturer's directions (Roche, Penzberg, Germany), and the number of TUNEL positive cells in the cornea was quantified by fluorescence microscopy.
Mice were pre-treated with 2.2 μg eritoran tetrasodium prior to LPS, as described above, and eyes were snap frozen. We used a TUNEL assay on 5 μm corneal sections to identify apoptotic cells. Total cells were identified using DAPI.

For data set [10], the target named is T5, TLR4. More on the design: species or system C57BL/6 mice. The settings on record: in vivo. This is another data set of the same source.
Method: as §5
Briefly, Corneas of C57BL/6 mice were abraded with three parallel, superficial scratches. 2 μl of 350 mg/ml Eritoran or placebo was added topically, and a 2 mm diameter punch from a soft contact lens was placed on the corneal surface as shown in FIG. 1. […] After 1 h, the lens was removed, and 3 h later (4 h after stimulation), and corneas were dissected, homogenized, and CXCL1/KC was measured by ELISA.
In another data set the test system is Gram negative Lipid A. Particulars: cited from earlier work.
The mark [11] stands for this setting: pretreatment with the highest concentration, Pam3Cys stimulation.

“Also recorded” adds a separate entry of the source.

T3 sequence (Q9QUN7 25-784): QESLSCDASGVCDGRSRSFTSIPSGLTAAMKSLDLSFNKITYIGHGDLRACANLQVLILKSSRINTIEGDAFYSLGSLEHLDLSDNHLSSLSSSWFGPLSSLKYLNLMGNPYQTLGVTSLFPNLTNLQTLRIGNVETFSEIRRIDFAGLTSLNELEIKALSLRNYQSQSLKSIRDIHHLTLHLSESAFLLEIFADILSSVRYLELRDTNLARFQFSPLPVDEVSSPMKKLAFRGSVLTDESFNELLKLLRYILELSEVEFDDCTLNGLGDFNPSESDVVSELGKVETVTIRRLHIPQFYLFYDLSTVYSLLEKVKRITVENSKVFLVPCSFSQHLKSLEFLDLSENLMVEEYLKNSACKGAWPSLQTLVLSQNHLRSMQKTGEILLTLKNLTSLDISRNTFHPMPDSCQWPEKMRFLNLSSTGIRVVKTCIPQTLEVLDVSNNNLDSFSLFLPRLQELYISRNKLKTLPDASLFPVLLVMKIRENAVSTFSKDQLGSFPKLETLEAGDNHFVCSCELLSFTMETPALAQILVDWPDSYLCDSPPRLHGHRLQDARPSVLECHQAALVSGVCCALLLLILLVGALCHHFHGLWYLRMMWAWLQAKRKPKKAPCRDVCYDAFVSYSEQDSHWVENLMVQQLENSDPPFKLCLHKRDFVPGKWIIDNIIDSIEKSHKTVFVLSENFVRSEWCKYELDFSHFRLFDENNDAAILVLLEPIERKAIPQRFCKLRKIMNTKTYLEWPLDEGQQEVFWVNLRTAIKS
T1 sequence (O00206 24-839): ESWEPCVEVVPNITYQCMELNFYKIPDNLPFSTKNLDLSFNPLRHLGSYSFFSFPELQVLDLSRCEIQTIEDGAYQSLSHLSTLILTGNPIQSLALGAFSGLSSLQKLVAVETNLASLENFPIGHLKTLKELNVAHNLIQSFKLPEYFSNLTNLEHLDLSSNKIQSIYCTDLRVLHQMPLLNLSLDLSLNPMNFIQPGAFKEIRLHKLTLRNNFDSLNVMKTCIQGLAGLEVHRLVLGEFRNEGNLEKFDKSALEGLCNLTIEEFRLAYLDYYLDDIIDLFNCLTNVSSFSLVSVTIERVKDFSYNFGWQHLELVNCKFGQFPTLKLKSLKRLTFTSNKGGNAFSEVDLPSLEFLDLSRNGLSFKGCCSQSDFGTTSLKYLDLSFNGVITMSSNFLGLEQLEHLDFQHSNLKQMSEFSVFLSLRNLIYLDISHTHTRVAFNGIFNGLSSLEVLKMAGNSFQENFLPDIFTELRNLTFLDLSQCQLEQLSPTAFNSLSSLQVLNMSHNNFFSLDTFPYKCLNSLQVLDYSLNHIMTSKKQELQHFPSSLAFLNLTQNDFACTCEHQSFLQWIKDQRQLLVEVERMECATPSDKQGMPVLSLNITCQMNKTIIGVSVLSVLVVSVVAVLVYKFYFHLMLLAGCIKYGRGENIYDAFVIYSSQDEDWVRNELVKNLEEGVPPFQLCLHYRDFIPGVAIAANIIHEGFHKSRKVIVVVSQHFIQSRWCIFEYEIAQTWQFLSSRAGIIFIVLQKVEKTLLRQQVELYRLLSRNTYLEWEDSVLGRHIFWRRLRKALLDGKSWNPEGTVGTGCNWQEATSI
T1 sequence (Q9Y6Y9 19-160): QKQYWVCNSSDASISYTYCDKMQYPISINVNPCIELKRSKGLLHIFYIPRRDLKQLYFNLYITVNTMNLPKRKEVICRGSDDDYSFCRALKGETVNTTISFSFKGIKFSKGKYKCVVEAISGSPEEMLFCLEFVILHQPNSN
T4 sequence (O60603 21-784): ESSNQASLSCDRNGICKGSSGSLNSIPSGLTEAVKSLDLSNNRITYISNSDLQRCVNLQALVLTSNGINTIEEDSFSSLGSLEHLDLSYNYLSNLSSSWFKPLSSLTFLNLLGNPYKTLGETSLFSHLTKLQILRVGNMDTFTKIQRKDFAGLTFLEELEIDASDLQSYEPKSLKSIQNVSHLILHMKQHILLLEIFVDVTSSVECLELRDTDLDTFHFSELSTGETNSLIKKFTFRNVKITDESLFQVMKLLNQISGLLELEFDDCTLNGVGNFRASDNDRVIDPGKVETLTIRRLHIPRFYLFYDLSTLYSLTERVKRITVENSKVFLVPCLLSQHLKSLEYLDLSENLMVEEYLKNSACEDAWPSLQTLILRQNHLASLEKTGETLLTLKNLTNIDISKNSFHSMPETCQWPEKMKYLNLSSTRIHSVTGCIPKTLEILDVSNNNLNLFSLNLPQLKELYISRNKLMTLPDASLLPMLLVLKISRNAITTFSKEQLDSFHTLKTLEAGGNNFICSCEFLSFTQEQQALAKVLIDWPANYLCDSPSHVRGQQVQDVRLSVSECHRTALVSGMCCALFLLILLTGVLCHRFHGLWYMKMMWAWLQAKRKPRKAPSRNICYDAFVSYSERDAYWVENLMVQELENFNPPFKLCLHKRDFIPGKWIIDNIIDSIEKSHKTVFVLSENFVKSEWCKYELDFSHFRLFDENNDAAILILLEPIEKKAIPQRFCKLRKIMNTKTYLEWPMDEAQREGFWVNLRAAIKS

Regarding `CCCCCC/C=C\CCCCCCCCCC(=O)N[C@H]1[C@H](OC[C@H]2O[C@H](OP(=O)([O-])[O-])[C@H](NC(=O)CC(=O)CCCCCCCCCCC)[C@@H](OCCCCCCCCCC)[C@@H]2O)O[C@H](COC)[C@@H](OP(=O)([O-])[O-])[C@@H]1OCC[C@@H](CCCCCCC)OC.[Na+].[Na+].[Na+].[Na+]` [eritoran tetrasodium], the “LPS-induced IL-8 production” value on TLR4 [1] is “significantly reduced”. On TLR4 [1] (listed as Eritoran), the “LPS-induced IL-8 production” value is “dose dependent inhibition”. The “concentration that inhibited LPS-induced IL-8” value at TLR4 [1] (neutrophil cell line (HL-60)) turned out to be 1 ng/mL. Also, at TLR4 [2], the “LPS-induced IL-8 production” value was “significantly reduced”. Also, on TLR4 [2] (listed as Eritoran), the “LPS-induced IL-8 production” value is “dose dependent inhibition”. At TLR4 [2] (macrophage cell line (U937)), the “concentration that inhibited LPS-induced IL-8” value worked out at 1 ng/mL. Further, on TLR4 [3], the “LPS-induced IL-8 production” value is on record as “significantly reduced”. Besides, the “LPS-induced IL-8 production” value at TLR4 [3] (listed as Eritoran) is “dose dependent inhibition”. At TLR4 [3] (human corneal epithelial cells with exogenous MD-2), the “dose required to inhibit LPS-induced IL-8, relative to macrophage and neutrophil lines” value is given as “required higher doses”. On TLR4/MD-2, the corneal haze entry was “significantly inhibited”, the corneal thickness result was “significantly inhibited” and the neutrophil infiltration result was “significantly inhibited”. At TLR2 [4] (setting [11]), the neutrophil infiltration result is reported as “no effect” and the total reflectivity result is given as “no effect”. For the same compound, the Pam3Cys/TLR2-induced corneal inflammation entry on TLR2 [4] (topical pre-treatment) is recorded as “no effect”. For the same compound, the “Pam3Cys-induced IL-8 production” value on TLR2 [5] is “no effect”. Moreover, the “CXCL1/KC in Pam3Cys-stimulated corneas” value on TLR2 [6] is “no difference”. For the same compound, the “Pam3Cys-induced IL-8 production” value on TLR2 [7] is given as “no effect”. In addition, at TLR4 [8], the LPS-induced corneal haze entry is on record as “significantly reduced”, the LPS-induced neutrophil infiltration result was “significantly inhibited; also recorded: significantly reduced”, the “cellular infiltrate in the central corneal stroma” value was “minimal cellular infiltrate” and the “concentration needed to reduce neutrophil numbers by 50%” value is 0.35 mg/mL. Besides, on TLR4 [8], the “effect on neutrophil numbers at concentrations lower than 1.1 mg/ml” value was “no significant effect”, the minimum inhibitory concentration is 350 µg/mL, the “neutrophil numbers per corneal section” value is given as “dose-dependent reduction” and the “second application after 3 h versus single treatment” value is “no significant difference”. In addition, the “Pam3Cys-induced IL-8 production” value on TLR2 [9] is given as “no effect”. In addition, the “TUNEL positive cells in the corneal epithelium” value in the data set with corneal epithelium (2.2 μg prior to LPS, presence or absence of LPS) was “no TUNEL positive cells”. In the data set on corneal epithelium (2.2 μg, corneal epithelium), the pro-apoptotic effect result was “no pro-apoptotic effect”. Moreover, the “CXCL1/KC in LPS-stimulated corneas” value at TLR4 [10] is reported as “significantly inhibited”.

For Rhodobacter sphaeroides lipid A [RSLA], in the data set with Gram negative Lipid A, the “antagonistic activity for other Gram negative Lipid A” value is reported as “pronounced antagonistic activity”. Moreover, the agonist activity entry in the data set with Gram negative Lipid A (on some cell types) is “only minor agonist activity”.
